Laboratory results as given in publication PMC4092090, “Investigation of a MMP-2 Activity-Dependent Anchoring Probe for Nuclear Imaging of Cancer” (PLoS ONE, 2014).

Tests used:
[1] = system: HT1080 human fibrosarcoma cells; assay: Cellular uptake study; type: cell-based; conditions: for Cellular accumulation (radioactivity in tumor cells): 5×10^5 HT1080 cells, FBS-free DMEM, 37 kBq probe, 30 min incubation, radioactivity counting, Fig. 3a
Protocol: HT1080 human fibrosarcoma cells were purchased from American Type Culture Collection (ATCC, Manassas, VA USA) and cultured in DMEM with low glucose (Invitrogen), 10% fetal bovine serum (FBS), and penicillin/streptomycin. MMP-2 cDNA was cloned into the pENTR vector (Invitrogen) and inserted into the pLenti6 vector (Invitrogen) as previously described, [7]. […] Protein quantitation was performed by BCA protein assay (Thermo Fisher Scientific, Inc. Rockford, IL USA). The cellular uptake study of MDAP3000 pretreated with activated MMP-2 (63 nM) in the presence or absence of GM6001 (100 µM) was performed as described above.

[2] = molecular target: T1, Human-recombinant MMP-2 protein (Homo sapiens, UniProt P08253); assay: Cleavage assay; type: biochemical; conditions: activated MMP-2 1–5 nM, 370 kBq probe, 37°C, 2 hr, pH 7.5 assay buffer, RP-HPLC, Fig. 3b
T1 construct: purchased R & D Systems, Inc. 902-MP-010
T1 sequence (P08253 110-660): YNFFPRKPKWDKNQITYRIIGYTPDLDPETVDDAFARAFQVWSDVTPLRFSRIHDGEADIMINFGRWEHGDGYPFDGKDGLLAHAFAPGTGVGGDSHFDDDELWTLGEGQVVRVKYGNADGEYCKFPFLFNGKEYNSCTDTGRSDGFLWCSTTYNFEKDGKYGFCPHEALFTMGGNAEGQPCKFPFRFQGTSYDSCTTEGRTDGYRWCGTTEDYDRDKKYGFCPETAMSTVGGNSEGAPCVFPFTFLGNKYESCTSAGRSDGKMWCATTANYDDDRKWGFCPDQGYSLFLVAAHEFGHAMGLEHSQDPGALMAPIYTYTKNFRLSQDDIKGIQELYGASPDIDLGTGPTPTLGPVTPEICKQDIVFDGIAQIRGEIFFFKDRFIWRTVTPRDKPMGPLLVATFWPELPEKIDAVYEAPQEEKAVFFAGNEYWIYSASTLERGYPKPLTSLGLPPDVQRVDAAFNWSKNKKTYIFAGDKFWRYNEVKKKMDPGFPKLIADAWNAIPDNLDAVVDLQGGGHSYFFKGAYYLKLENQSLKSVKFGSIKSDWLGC
Protocol: Human-recombinant MMP-2 protein (902-MP-010, R & D Systems, Inc., Minneapolis, MN USA) was activated with p-aminophenylmercuric acetate (1 mM) in assay buffer (50 mM Tris-HCl, 150 mM NaCl, 10 mM CaCl2, 5 µM ZnCl2, 0.02% Brij 35, pH 7.5). MDAP1000, MDAP3000, and MDAP5000 (370 kBq) were incubated at 37°C for 2 hr with activated MMP-2 (1–5 nM) and a MMP inhibitor (0 or 100 µM, GM6001, Merck KGaA, Darmstadt, Germany). The reaction was quenched by addition of methanol, and the percentage of cleaved peptide was estimated by RP-HPLC.

[3] = Effective dose estimation (OLINDA); conditions: estimated from mouse biodistribution data (non-decay-corrected time radioactivity curves) with OLINDA
Excerpt: The effective dose of MDAP3000 was estimated using the area under the non-decay-corrected time radioactivity curves generated from the biodistribution data for each organ with the standard quantitation platform included in Organ Level Internal Dose Assessment software (OLINDA, Vanderbilt University).

Row | Substance | Cellular accumulation (radioactivity in tumor cells) [1] | Cleavage by MMP-2 [2] | Increased cellular uptake of MMP-2 pretreated probe with additional MMP inhibitor ([1]; HT1080 cells, activated MMP-2 (63 nM) plus GM6001 (100 µM), Fig. 3c) | Cellular accumulation of probe pretreated with MMP-2 ([1]; HT1080 cells, probe pretreated with activated MMP-2 (63 nM), 30 min, Fig. 3c) | Effective dose [3]
1 | Palmitoyl-Dap(p-SCN-Bn-DTPA-^111In)-10-Adc-Gly-Pro-Leu-Gly-Val-Arg-Gly-Lys(ivDde)-PEG1000 [MDAP1000] | high radioactivity accumulation | concentration-dependent manner | – | – | –
2 | Palmitoyl-Dap(p-SCN-Bn-DTPA-^111In)-10-Adc-Gly-Pro-Leu-Gly-Val-Arg-Gly-Lys(ivDde)-PEG3000 [MDAP3000] | significantly lower radioactivity | concentration-dependent manner | completely blocked | accumulated in cells to higher levels | 5.08×10^−2 mSv/MBq
